This note sets out measurements from patent publication EP4745135A1 (Gluetacs Therapeutics (Shanghai) Co., Ltd., priority 2023, dated 2025).

In one assay the target is T1, IKZF1 (Homo sapiens, UniProt Q13422+Q96SW2).
T1 construct: effects of the compounds of the present disclosure on the expression of target proteins in cells; endogenous in cells; host or cells: human PBMCs (Milecell Biotechnologies)
Nature of the assay: Western blot, degradation of substrate protein in hPBMCs. As to conditions: Western blot, 24 hours of compound treatment, compounds tested at 50 nM and 500 nM (concentration for the table not stated). Type of assay: cell-based. Background: A western blot detects proteins with antibodies after separation by electrophoresis.

The target of another assay is T2, IKZF3 (Homo sapiens, UniProt Q96SW2+Q9UKT9).
T2 construct: effects of the compounds of the present disclosure on the expression of target proteins in cells; endogenous in cells; host or cells: human PBMCs (Milecell Biotechnologies)
The description is as above. It is filed as cell-based. The following applies: Western blot, 24 hours of compound treatment, compounds tested at 50 nM and 500 nM (concentration for the table not stated).

The target in another assay is T3, CK1α (Homo sapiens, UniProt P48729+Q96SW2).
T3 construct: effects of the compounds of the present disclosure on the expression of target proteins in cells; endogenous in cells; host or cells: human PBMCs (Milecell Biotechnologies)
The assay is described as above. It is filed as cell-based. As to conditions: Western blot, 24 hours of compound treatment, compounds tested at 50 nM and 500 nM (concentration for the table not stated).

A further assay deals with T4, WEE1 (Homo sapiens, UniProt P30291+Q96SW2).
T4 construct: effects of the compounds of the present disclosure on the expression of target proteins in cells; endogenous in cells; host or cells: human PBMCs (Milecell Biotechnologies)
The assay is described as above. Type of assay: cell-based. As to conditions: Western blot, 24 hours of compound treatment, compounds tested at 50 nM and 500 nM (concentration for the table not stated).

The next assay deals with T5, IKZF2 (Homo sapiens, UniProt Q96SW2+Q9UKS7).
T5 construct: effects of the compounds of the present disclosure on the expression of target proteins in cells; endogenous in cells; host or cells: human PBMCs (Milecell Biotechnologies)
The description is as above. Type of assay: cell-based. As to conditions: Western blot, 24 hours of compound treatment, compounds tested at 50 nM and 500 nM (concentration for the table not stated).

For the next assay, the system named is GSPT1. Described as above. Type of assay: cell-based, Human. As to conditions: Western blot, 24 hours of compound treatment, compounds tested at 50 nM and 500 nM (concentration for the table not stated).
Assay [1] addresses T6, human Cereblon WT GST-tagged protein (Homo sapiens, UniProt Q96SW2).
T6 construct: purchased CISBIO 64BDCRBNPEH
Nature of the assay: CRBN-binding affinity, HTRF (CEREBLON BINDING kit). As to conditions: for inhibition at 0.5 µM: read-out: Inhibition Rate at 0.5 µM (%); for inhibition at 2 µM: read-out: Inhibition Rate at 2 µM (%). For orientation: In TR-FRET formats the signal depends on donor and acceptor labels being close together.

The test system of assay [2] is Human multiple myeloma cell (MM.1S). The experiment in a line: Tumor cell proliferation inhibition (CellTiter-Meiluncell luminescent cell viability assay). The following applies: for inhibition at 0.01 µM / inhibition at 0.5 µM: Homo sapiens, MM1.S, 96 h; for inhibition at 0.01 µM: read-out: Inhibition Rate at 10 nM (%); for inhibition at 0.5 µM: read-out: Inhibition Rate at 500 nM (%).

T6 sequence (Q96SW2 whole entry): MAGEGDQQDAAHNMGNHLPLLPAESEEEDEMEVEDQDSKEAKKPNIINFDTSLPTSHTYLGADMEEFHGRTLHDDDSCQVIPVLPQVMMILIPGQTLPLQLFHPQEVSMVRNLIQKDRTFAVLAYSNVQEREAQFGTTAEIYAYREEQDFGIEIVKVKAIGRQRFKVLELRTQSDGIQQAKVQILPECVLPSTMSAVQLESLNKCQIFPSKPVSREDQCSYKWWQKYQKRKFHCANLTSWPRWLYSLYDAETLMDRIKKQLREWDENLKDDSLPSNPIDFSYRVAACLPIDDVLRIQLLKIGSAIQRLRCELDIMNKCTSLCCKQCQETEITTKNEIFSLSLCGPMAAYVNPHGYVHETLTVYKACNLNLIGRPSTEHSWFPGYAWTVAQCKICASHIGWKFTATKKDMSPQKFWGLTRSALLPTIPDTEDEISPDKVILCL
T4 sequence (P30291 whole entry): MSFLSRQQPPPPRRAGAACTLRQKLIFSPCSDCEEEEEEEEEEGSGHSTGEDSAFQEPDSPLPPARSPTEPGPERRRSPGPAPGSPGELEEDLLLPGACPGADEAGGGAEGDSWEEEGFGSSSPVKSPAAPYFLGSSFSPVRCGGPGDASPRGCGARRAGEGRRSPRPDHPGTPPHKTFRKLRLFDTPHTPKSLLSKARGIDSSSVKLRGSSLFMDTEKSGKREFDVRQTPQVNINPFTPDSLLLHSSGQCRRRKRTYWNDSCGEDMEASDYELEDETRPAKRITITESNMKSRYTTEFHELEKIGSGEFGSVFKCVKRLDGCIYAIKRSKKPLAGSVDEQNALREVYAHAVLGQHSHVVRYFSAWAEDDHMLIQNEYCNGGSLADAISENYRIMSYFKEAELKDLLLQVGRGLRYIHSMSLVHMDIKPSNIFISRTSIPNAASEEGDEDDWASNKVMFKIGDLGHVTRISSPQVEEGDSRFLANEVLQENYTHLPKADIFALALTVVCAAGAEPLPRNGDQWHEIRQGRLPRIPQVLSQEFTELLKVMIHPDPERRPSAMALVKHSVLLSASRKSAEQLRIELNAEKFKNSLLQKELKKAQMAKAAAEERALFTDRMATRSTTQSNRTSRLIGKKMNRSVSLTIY
T4 sequence (Q96SW2 whole entry): as the sequence (Q96SW2 whole entry) above
T4 sequence (Q16531 whole entry partner): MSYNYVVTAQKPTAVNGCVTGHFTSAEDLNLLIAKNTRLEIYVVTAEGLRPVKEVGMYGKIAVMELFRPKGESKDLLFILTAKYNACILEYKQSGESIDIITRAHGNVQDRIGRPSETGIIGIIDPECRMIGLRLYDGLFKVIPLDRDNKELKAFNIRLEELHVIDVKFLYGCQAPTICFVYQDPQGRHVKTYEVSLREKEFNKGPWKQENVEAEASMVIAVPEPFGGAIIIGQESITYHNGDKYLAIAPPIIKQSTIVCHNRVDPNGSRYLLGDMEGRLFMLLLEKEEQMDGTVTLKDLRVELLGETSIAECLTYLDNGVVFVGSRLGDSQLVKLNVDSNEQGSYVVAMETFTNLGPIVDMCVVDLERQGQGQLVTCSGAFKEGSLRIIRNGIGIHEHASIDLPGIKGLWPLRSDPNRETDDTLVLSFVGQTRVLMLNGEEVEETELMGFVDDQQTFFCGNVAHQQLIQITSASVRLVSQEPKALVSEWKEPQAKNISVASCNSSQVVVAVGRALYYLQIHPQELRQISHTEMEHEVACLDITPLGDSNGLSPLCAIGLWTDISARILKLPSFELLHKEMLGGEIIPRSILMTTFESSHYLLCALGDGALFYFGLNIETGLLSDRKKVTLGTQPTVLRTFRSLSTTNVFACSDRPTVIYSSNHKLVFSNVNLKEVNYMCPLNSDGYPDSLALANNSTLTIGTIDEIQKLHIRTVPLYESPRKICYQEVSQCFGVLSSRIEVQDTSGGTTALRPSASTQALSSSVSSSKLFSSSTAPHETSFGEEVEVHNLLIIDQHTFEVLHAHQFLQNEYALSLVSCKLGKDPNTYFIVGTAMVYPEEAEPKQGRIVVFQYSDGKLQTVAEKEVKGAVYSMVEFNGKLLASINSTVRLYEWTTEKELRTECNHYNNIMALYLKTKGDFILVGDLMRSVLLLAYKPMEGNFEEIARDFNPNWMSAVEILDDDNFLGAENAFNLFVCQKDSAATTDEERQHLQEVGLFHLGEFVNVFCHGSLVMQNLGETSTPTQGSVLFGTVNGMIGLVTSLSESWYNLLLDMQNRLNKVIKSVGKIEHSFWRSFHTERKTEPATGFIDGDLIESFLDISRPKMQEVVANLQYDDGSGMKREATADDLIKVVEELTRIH
T5 sequence (Q9UKS7 whole entry): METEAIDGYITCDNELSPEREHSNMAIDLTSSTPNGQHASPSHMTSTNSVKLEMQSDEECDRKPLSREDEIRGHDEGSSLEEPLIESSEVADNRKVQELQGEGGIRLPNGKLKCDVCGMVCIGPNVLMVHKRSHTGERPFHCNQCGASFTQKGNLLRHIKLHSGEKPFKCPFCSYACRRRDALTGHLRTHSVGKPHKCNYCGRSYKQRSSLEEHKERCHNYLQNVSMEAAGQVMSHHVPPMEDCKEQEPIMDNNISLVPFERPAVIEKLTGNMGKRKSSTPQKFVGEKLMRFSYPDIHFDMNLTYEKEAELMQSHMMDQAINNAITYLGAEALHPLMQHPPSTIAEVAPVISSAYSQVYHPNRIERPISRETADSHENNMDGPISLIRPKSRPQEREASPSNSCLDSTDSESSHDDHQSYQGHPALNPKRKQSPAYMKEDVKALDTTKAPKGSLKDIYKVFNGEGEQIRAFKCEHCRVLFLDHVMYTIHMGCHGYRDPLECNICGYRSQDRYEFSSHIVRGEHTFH
T5 sequence (Q96SW2 whole entry): as the sequence (Q96SW2 whole entry) above
T5 sequence (Q16531 whole entry partner): as the sequence (Q16531 whole entry partner) above
T3 sequence (P48729 whole entry): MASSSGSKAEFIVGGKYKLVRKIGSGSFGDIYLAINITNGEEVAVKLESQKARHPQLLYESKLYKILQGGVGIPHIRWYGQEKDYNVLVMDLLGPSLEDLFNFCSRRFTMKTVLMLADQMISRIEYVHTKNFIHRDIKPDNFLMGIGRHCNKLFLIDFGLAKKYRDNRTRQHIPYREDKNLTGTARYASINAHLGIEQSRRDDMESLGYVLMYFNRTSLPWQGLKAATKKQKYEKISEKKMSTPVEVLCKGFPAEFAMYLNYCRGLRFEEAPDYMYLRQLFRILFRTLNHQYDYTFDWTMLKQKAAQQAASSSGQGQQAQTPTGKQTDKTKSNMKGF
T3 sequence (Q96SW2 whole entry): as the sequence (Q96SW2 whole entry) above
T3 sequence (Q16531 whole entry partner): as the sequence (Q16531 whole entry partner) above
T2 sequence (Q9UKT9 whole entry): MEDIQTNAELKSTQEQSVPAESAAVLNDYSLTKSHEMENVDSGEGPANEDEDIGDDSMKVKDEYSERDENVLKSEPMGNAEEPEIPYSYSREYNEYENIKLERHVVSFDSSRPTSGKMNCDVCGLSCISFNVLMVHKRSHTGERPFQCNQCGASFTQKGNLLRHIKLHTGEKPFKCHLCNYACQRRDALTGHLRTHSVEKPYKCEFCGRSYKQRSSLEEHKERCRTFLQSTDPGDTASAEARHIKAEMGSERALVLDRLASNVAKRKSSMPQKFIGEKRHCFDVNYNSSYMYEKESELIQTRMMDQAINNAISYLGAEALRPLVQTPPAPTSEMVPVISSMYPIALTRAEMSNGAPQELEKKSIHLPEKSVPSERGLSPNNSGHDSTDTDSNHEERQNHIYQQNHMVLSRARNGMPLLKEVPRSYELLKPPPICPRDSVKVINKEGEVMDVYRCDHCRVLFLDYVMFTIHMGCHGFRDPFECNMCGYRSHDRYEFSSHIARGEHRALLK
T2 sequence (Q96SW2 whole entry): as the sequence (Q96SW2 whole entry) above
T2 sequence (Q16531 whole entry partner): as the sequence (Q16531 whole entry partner) above
T1 sequence (Q13422 whole entry): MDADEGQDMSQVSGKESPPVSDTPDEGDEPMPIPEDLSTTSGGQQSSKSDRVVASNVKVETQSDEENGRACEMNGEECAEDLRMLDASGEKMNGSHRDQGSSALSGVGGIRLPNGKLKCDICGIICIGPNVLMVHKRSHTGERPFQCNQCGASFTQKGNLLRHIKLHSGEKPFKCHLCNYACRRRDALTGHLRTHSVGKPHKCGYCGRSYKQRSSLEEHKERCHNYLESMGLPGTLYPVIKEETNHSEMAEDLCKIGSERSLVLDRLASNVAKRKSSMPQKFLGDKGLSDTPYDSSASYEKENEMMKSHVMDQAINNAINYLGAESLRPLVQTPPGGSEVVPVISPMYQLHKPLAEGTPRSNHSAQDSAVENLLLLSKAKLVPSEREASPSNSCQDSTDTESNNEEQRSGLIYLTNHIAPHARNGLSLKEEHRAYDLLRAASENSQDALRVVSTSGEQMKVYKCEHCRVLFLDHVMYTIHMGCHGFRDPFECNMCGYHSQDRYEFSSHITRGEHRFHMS
T1 sequence (Q96SW2 whole entry): as the sequence (Q96SW2 whole entry) above
T1 sequence (Q16531 whole entry partner): as the sequence (Q16531 whole entry partner) above

Broadly, the inhibition is the change of the read-out against control, counted positive when it falls. For the compound `O=C1CCC(N2Cc3c(CN4CC=C(c5ccnc(F)c5F)CC4)cccc3C2=S)C(=O)N1` (stereo not shown) [GT-08464, 3-(4-((2',3'-difluoro-3,6-dihydro-[4,4'-bipyridin]-1(2H)-yl)methyl)-1-thioxoisoindolin-2-yl)piperidine-2,6-dione], the “IKZF 1 substrate protein remaining %” value on IKZF1 is recorded as “B (80%< substrate protein remaining %≤ 100%)”. Besides, at IKZF3, the “IKZF3 substrate protein remaining %” value is given as “B (80%< substrate protein remaining %≤ 100%)”. At CK1α, the “CK1α substrate protein remaining %” value is given as “B (80%< substrate protein remaining %≤ 100%)”. The “Wee1 substrate protein remaining %” value at WEE1 was “A (0% ≤ substrate protein remaining % ≤ 80%)”. For the same compound, the “IKZF2 substrate protein remaining %” value on IKZF2 is recorded as “B (80%< substrate protein remaining %≤ 100%)”. Also, the “GSPT1 substrate protein remaining %” value in the assay on GSPT1 is on record as “A (0% ≤ substrate protein remaining % ≤ 80%)”. For the same compound, in assay [1], the inhibition at 0.5 µM is 60 to 80% and the inhibition at 2 µM is 60 to 80%. Also, the inhibition at 0.01 µM in assay [2] is 50 to 60%. For the same compound, in assay [2] (MM.1S, 96 hours), the “Inhibition Rate at 500 nM (%)” value is “la5”.

Regarding `O=C1CCC(N2Cc3c(CN4C5CC4CN(c4cccc(Cl)c4Cl)C5)cccc3C2=S)C(=O)N1` (stereo not shown) [GT-08465, 3-(4-((3-(2,3-dichlorophenyl)-3,6-diazabicyclo[3.1.1]heptan-6-yl)methyl)-1-thioxoisoindolin-2-yl)piperidine-2,6-dione], the “IKZF 1 substrate protein remaining %” value on IKZF1 is “B (80%< substrate protein remaining %≤ 100%)”. For the same compound, at IKZF3, the “IKZF3 substrate protein remaining %” value is recorded as “B (80%< substrate protein remaining %≤ 100%)”. In addition, at CK1α, the “CK1α substrate protein remaining %” value is recorded as “B (80%< substrate protein remaining %≤ 100%)”. The “Wee1 substrate protein remaining %” value at WEE1 is “B (80%< substrate protein remaining %≤ 100%)”. In addition, the “IKZF2 substrate protein remaining %” value at IKZF2 is reported as “B (80%< substrate protein remaining %≤ 100%)”. For the same compound, the “GSPT1 substrate protein remaining %” value in the assay with GSPT1 is listed as “A (0% ≤ substrate protein remaining % ≤ 80%)”. For the same compound, in assay [1], the inhibition at 0.5 µM was 40 to 53% and the inhibition at 2 µM was 60 to 80%. The inhibition at 0.01 µM in assay [2] lay in the range of 40 to 50%. Also, the “Inhibition Rate at 500 nM (%)” value in assay [2] (MM.1S, 96 hours) is “la5”.

On to `O=C1CCC(N2Cc3c(CN4CC5CC(C4)N5c4cccc(Cl)c4Cl)cccc3C2=S)C(=O)N1` (stereo not shown) [GT-08466, 3-(4-((6-(2,3-dichlorophenyl)-3,6-diazabicyclo[3.1.1]heptan-3-yl)methyl)-1-thioxoisoindolin-2-yl)piperidine-2,6-dione], for which the “IKZF 1 substrate protein remaining %” value at IKZF1 is reported as “B (80%< substrate protein remaining %≤ 100%)”. Also, the “IKZF3 substrate protein remaining %” value at IKZF3 was “B (80%< substrate protein remaining %≤ 100%)”. Moreover, the “CK1α substrate protein remaining %” value at CK1α is recorded as “B (80%< substrate protein remaining %≤ 100%)”. Besides, the “Wee1 substrate protein remaining %” value at WEE1 was “B (80%< substrate protein remaining %≤ 100%)”. For the same compound, the “IKZF2 substrate protein remaining %” value at IKZF2 is reported as “A (0% ≤ substrate protein remaining % ≤ 80%)”. Besides, the “GSPT1 substrate protein remaining %” value with GSPT1 was “A (0% ≤ substrate protein remaining % ≤ 80%)”. Besides, in assay [1], the inhibition at 0.5 µM lay in the range of 30 to 40% and the inhibition at 2 µM was 60 to 80%. For the same compound, the inhibition at 0.01 µM in assay [2] was 20 to 30%. Also, the “Inhibition Rate at 500 nM (%)” value in assay [2] (MM.1S, 96 hours) is “la7”.

In the case of `O=C1CCC(N2Cc3cc(CN4CC5CC(C4)N5c4cccc(Cl)c4Cl)ccc3C2=S)C(=O)N1` (stereo not shown) [GT-08476, 3-(5-((6-(2,3-dichlorophenyl)-3,6-diazabicyclo[3.1.1]heptan-3-yl)methyl)-1-thioxoisoindolin-2-yl)piperidine-2,6-dione], the “IKZF 1 substrate protein remaining %” value on IKZF1 is recorded as “B (80%< substrate protein remaining %≤ 100%)”. Also, the “IKZF3 substrate protein remaining %” value on IKZF3 is given as “A (0% ≤ substrate protein remaining % ≤ 80%)”. The “CK1α substrate protein remaining %” value at CK1α was “B (80%< substrate protein remaining %≤ 100%)”. Besides, the “Wee1 substrate protein remaining %” value on WEE1 was “B (80%< substrate protein remaining %≤ 100%)”. For the same compound, the “IKZF2 substrate protein remaining %” value on IKZF2 is given as “B (80%< substrate protein remaining %≤ 100%)”. Also, the “GSPT1 substrate protein remaining %” value in the assay on GSPT1 was “B (80%< substrate protein remaining %≤ 100%)”. Moreover, in assay [1], the inhibition at 0.5 µM lay within 60 to 80% and the inhibition at 2 µM lay in the range of 80 to 100%. In assay [2], the inhibition at 0.01 µM was in the range of 5 to 10% and the inhibition at 0.5 µM fell in the range of 40 to 50%.

With `O=C1CCC(N2Cc3cc(CN4C[C@H]5C[C@@H]4CN5c4cccc(Cl)c4Cl)ccc3C2=S)C(=O)N1` (stereo partly drawn) [GT-08477, 3-(5-(((1R,4R)-5-(2,3-dichlorophenyl)-2,5-diazabicyclo[2.2.1]heptan-2-yl)methyl)-1-thioxoisoindolin-2-yl)piperidine-2,6-dione], the “IKZF 1 substrate protein remaining %” value at IKZF1 is reported as “B (80%< substrate protein remaining %≤ 100%)”. On IKZF3, the “IKZF3 substrate protein remaining %” value is “A (0% ≤ substrate protein remaining % ≤ 80%)”. Moreover, on CK1α, the “CK1α substrate protein remaining %” value was “B (80%< substrate protein remaining %≤ 100%)”. The “Wee1 substrate protein remaining %” value on WEE1 is “B (80%< substrate protein remaining %≤ 100%)”. The “IKZF2 substrate protein remaining %” value on IKZF2 is reported as “B (80%< substrate protein remaining %≤ 100%)”. Moreover, the “GSPT1 substrate protein remaining %” value in the assay with GSPT1 was “A (0% ≤ substrate protein remaining % ≤ 80%)”. In assay [1], the inhibition at 0.5 µM is 53 to 60% and the inhibition at 2 µM was in the range of 80 to 100%. In addition, the inhibition at 0.5 µM in assay [2] lay in the range of 40 to 50%. Also, the “Inhibition Rate at 10 nM (%)” value in assay [2] (MM.1S, 10 nM, 96 hours) is recorded as “la5”.

For `O=C1CCC(N2Cc3cc(CN4CC5CCC4CN5c4cccc(Cl)c4Cl)ccc3C2=S)C(=O)N1` (stereo not shown) [GT-08478, 3-(5-((5-(2,3-dichlorophenyl)-2,5-diazabicyclo[2.2.2]octan-2-yl)methyl)-1-thioxoisoindolin-2-yl)piperidine-2,6-dione], the “IKZF 1 substrate protein remaining %” value on IKZF1 was “B (80%< substrate protein remaining %≤ 100%)”. At IKZF3, the “IKZF3 substrate protein remaining %” value was “B (80%< substrate protein remaining %≤ 100%)”. Further, on CK1α, the “CK1α substrate protein remaining %” value is recorded as “B (80%< substrate protein remaining %≤ 100%)”. On WEE1, the “Wee1 substrate protein remaining %” value is given as “B (80%< substrate protein remaining %≤ 100%)”. The “IKZF2 substrate protein remaining %” value on IKZF2 is listed as “B (80%< substrate protein remaining %≤ 100%)”. For the same compound, the “GSPT1 substrate protein remaining %” value in the assay with GSPT1 is given as “A (0% ≤ substrate protein remaining % ≤ 80%)”. In assay [1], the inhibition at 0.5 µM lay in the range of 40 to 53% and the inhibition at 2 µM lay within 80 to 100%. Besides, in assay [2], the inhibition at 0.01 µM is 40 to 50% and the inhibition at 0.5 µM is 50 to 60%.

Consider `O=C1CCC(N2Cc3cc(CN4CCC(c5ccc(Cl)cc5)CC4)ccc3C2=S)C(=O)N1` (stereo not shown) [GT-08619, 3-(5-((4-(4-chlorophenyl)piperidin-1-yl)methyl)-1-thioxoisoindolin-2-yl)piperidine-2,6-dione], for which, at IKZF1, the “IKZF 1 substrate protein remaining %” value is “B (80%< substrate protein remaining %≤ 100%)”. On IKZF3, the “IKZF3 substrate protein remaining %” value is reported as “B (80%< substrate protein remaining %≤ 100%)”. Also, the “CK1α substrate protein remaining %” value at CK1α was “B (80%< substrate protein remaining %≤ 100%)”. Also, the “Wee1 substrate protein remaining %” value on WEE1 is given as “B (80%< substrate protein remaining %≤ 100%)”. Further, at IKZF2, the “IKZF2 substrate protein remaining %” value is given as “B (80%< substrate protein remaining %≤ 100%)”. In addition, the “GSPT1 substrate protein remaining %” value with GSPT1 was “A (0% ≤ substrate protein remaining % ≤ 80%)”. In assay [1], the inhibition at 0.5 µM lay in the range of 40 to 53% and the inhibition at 2 µM lay in the range of 80 to 100%. In assay [2], the inhibition at 0.01 µM lay within 20 to 30% and the inhibition at 0.5 µM was in the range of 40 to 50%.
